Here are results for 6 molecules from US10988455B2, “1,2,4-triazine-4-amine derivatives” (Heptares Therapeutics Limited, priority 2010, dated 2021).

Test [1] addresses human adenosine A2a receptor (Homo sapiens (Human), UniProt P29274). As to the kind of experiment: HEK293-hA2a [3H]-ZM241385 binding assay (Test A). The following applies: HEK293 membranes, 1 nM [3H]ZM241385, 25° C., 1 h. On the procedure:
(§1) All test compounds were prepared as a stock solution of 10 mM in 100% DMSO.

Test [2] addresses human adenosine A1 receptor (Homo sapiens (Human), UniProt P30542). The test is described as follows: CHO-hA1 [3H]DPCPX binding assay (Test A). The following applies: CHO membranes, 1 nM [3H]DPCPX, 25° C., 1 h. The method, then: as §1
Test [3] concerns haloperidol-induced catalepsy in rats. As to the kind of experiment: Catalepsy reversal test (Test B). Format: in vivo, Sprague-Dawley rats. As to conditions: 120 min pre-test time; for reversal of cataleptic behavior in rats pre-treated with haloperidol: dose of 1 mg/kg p.o. The method, then:
The dopamine D2 receptor antagonist, haloperidol, induces Parkinsonism in humans and induces motor effects in rats such as catalepsy. There is considerable evidence that adenosine A2A receptor antagonists reverse haloperidol-induced motor effects in preclinical studies. […] The present study determines the ability of haloperidol-induced catalepsy in rats to be reversed by novel A2A receptor antagonists.
Haloperidol (0.82 mg/kg, i.p.; 150 min pre-test time) induces significant cataleptic behaviour in rats (average score 3.1). The effect of selected compounds of the invention (2-10 mg/kg or 0.3-3 mg/kg, p.o.; 120 min pre-test time) on catalepsy was established by administration of said compounds to rats pre-treated with haloperidol as described above.
Details of a similar test may be found in, for example, Hodgson et al., J. Pharmacol. Exp. Ther. 330, 2009.

human adenosine A1 receptor, sequence (P30542 whole entry): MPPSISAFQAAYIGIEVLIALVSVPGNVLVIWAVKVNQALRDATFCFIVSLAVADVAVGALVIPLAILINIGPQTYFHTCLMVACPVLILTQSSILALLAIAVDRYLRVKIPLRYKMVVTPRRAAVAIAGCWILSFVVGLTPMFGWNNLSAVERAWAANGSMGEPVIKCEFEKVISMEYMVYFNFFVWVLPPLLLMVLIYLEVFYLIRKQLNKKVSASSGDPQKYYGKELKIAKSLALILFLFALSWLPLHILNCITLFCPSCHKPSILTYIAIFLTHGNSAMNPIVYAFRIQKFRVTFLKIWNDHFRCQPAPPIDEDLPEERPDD
human adenosine A2a receptor, sequence (P29274 whole entry): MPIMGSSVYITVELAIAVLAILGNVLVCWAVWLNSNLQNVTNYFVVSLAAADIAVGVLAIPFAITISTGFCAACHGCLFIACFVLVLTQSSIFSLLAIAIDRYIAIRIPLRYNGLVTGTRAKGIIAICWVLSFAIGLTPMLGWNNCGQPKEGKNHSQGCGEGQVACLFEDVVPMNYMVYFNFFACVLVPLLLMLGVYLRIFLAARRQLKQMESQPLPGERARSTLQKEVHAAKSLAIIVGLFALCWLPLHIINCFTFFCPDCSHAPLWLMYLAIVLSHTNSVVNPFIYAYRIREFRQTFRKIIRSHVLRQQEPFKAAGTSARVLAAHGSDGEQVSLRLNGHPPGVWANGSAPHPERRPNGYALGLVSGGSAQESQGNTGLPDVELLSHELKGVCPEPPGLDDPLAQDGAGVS

For the molecule `Cc1cc(Cl)cc(-c2nnc(N)nc2-c2ccccc2)c1` [1(li)], the “pKi A2a” value in test [1] is on record as 8.66. The “pKi A1” value in test [2] was 6.87. Also, in test [3], the “reversal of cataleptic behavior in rats pre-treated with haloperidol” value (shortened to “reversal of cataleptic behavior”) is listed as “statistically significant”.

On to `Cc1cc(-c2nnc(N)nc2-c2ccccc2)cc(N2CCC2)n1` [5(x), 6-[2-(Azetidin-1-yl)-6-methylpyridin-4-yl]-5-phenyl-1,2,4-triazin-3-amine], for which the “pKi A2a” value in test [1] came out at 8.52. Moreover, the “pKi A1” value in test [2] stood at 8.05. Moreover, in test [3], the “reversal of cataleptic behavior” value is “statistically significant”.

On to `Nc1nnc(-c2ccnc(Cl)c2)c(-c2ccccc2)n1` [1(xliii)], for which the “pKi A2a” value in test [1] is recorded as 7.74. Further, in test [2], the “pKi A1” value is on record as 8.54. Also, the “ED50, reversal of cataleptic behaviour in rats pre-treated with haloperidol” value in test [3] (p.o., haloperidol 0.82 mg/kg i.p.) came to 0.27 mg/kg.

For the molecule `Cc1cc(-c2nnc(N)nc2-c2ccccc2F)cc(C(F)(F)F)n1` [1(cxci)], the “pKi A2a” value in test [1] came out at 8.26. Further, the “pKi A1” value in test [2] is on record as 7.36. In test [3], the “reversal of cataleptic behavior” value is recorded as “statistically significant”.

As for `Cc1cc(-c2nnc(N)nc2-c2cccc(F)c2)cc(Cl)n1` [1(xc)], in test [1], the “pKi A2a” value is listed as 8.07. The “pKi A1” value in test [2] is given as 7.26. Also, the “reversal of cataleptic behavior” value in test [3] is “statistically significant”.

For the molecule `Cc1cc(-c2nnc(N)nc2-c2ccccc2)cc(Br)n1` [1(ccxii)], the “pKi A2a” value in test [1] was 8.66. The “pKi A1” value in test [2] was 7.68. Further, the “reversal of cataleptic behavior” value in test [3] is reported as “statistically significant”.
